Laboratory results as given in patent publication US10849955B2, “Methods of treating pancreatic cancer using GPCR antagonists” (City of Hope, priority 2016, dated 2020).

Columns and labels:
Assay type in all cases: cell-based, human
EGFR = EGFR phosphorylation in PANC-1 cells, Western blot kinetic study; conditions: 10 nM agonist(s), pEGFR over total EGFR
Method: To prepare protein extracts, cells were pelleted by centrifugation and washed twice in PBS. The pellet was resuspended in lysis buffer (50 mM Tris, pH 8.0, 150 mM sodium chloride, 1% NP-40, supplemented Protease and Phosphatase Inhibitor Mini Tablets, Pierce) and incubated on a rotator for 30 min at 4° C. Subsequently, the cells were pelleted by centrifugation at 10,000 rpm for 20 min at 4° C. The protein lysate (supernatant) was used immediately or stored at −80° C. Membrane proteins were isolated using the Mem-Per Plus Membrane protein isolation kit (Thermo Scientific) per the manufacturer′ instructions. Briefly, adherent cells were scraped and centrifuged for 5 min at 300×g. The cell pellet was washed 2 times using Cell Wash solution and centrifuged for 5 min at 300×g. The cell pellet was permeabilized using Permeabilization Buffer and incubated at 4° C. for 10 mins on a rotator. […] Proteins were detected with Pierce ECL detection reagents (Pierce). […]
Cells were treated with 10 nM Dermorphin [Y(D-ALA)FGYPKC; Genscript], 10 nM (1R,1′S,3′R/1R,1′R,3′S)-L-054,264 (Tocris) individually and in combination for the indicated times. […] Blots were imaged on film and quantified using the Image Lab software (Biorad). ERK1/2 and EGFR phosphorylation at each time point was quantified and normalized by calculating the ratio of pERK1/2 over total ERK1/2 and pEGFR over total EGFR in each lane. […]

pERK1/2 = pERK1/2 localization in PANC-1 cells, confocal imaging; conditions: 3 or 30 min, 10 nM dermorphin, 10 nM L-054,264, 100 ng/ml CXCL12
Method: For pERK1/2 activation studies, after 24 hours, normal pancreatic and/or PANC-1 cells were treated with 1) 10 nM dermorphin; 2) 10 nM L-054,264; 3) 10 nM dermorphin plus 10 nM L-054,264; 4) 100 ng/ml CXCL12; and 5) 10 nM dermorphin plus 100 ng/ml CXCL12 for either 3 min or 30 min as indicated. PANC-1 NS, PANC-1/β arreatin2, PANC-1/SSTR2si and PANC-1/MORsi cells were treated with 10 nM dermorphin with 10 nM L-054,264 for 3 min. Following treatment, cells were washed and fixed with 4% (w/v) paraformaldehyde and 0.2% (w/v) glutaraldehyde for 30 min and inactivated with 25 mM glycine for 10 min. Cells were then washed in PBS and subsequently permeabilized on ice using 0.5% tween-20 in PBS for 20 min similarly as before (Smith et al., 2004). Cells were washed with PBS and blocked with 5% BSA in PBS for 10 min. Cells were incubated for 1 h at 37° C. with 2 μg/mL of primary antibody (anti-pERK1/2). Subsequently, cells were washed 3 times with 0.5% tween-20 in PBS for 5 min each and incubated with 2 μg/mL of Alexa Fluor 647 labeled secondary antibody in PB for 45 min. Following incubation with secondary antibody, cells were washed 3 times with 0.5% tween-20 in PBS. Cells were covered with mounting media DAPI (Vector Labs), mounted on slides, and imaged on a Zeiss LSM700 confocal microscope.

[1] = tested on: N-cadherin, MMP-9, vimentin and E-cadherin; assay: EMT marker mRNA levels in PANC-1 cells, RT-PCR; conditions: 10 nM dermorphin, 100 ng/mL CXCL12
Method: RNA was isolated using the RNAeasy Plus Kit (Qiagen) according to the manufacturer's protocol. For the EMT markers assay, cells were first treated with appropriate agonists where indicated for 24 hours followed by cell lysis and RNA extraction. cDNA was synthesized from 2 μg RNA using Bioline cDNA synthesis kit according to the manufacturer's protocol. The synthesized cDNAs were used as templates for PCRs with primers as described below. RT-PCR was performed using 5×RT Mastermix (Applied Biosystems). The reactions were analyzed on the CFX96 Real time instrument (Biorad). Themocycler conditions were 95° C. for 10 min for 1 cycle, 95° C. for 15 sec and 60° C. for 1 min for 50 cycles. GAPDH was used as an internal control. For GPCR assays, COS-7 cells were used as negative and MCF-7 cells as positive controls. For EMT marker assays, fold change was calculated as a ratio of treated to untreated control.

Q: (1R,1′S,3′R/1R,1′R,3′S)-L-054,264 was tested. Which EGFR phosphorylation (EGFR) did it give?
A: induced modest EGFR phosphorylation

Q: For CXCL12: selective CXCR4 agonist, which pERK1/2 localization (pERK1/2) is on record?
A: high levels of nuclear pERK1/2

Q: And the “mRNA levels of 4 markers (N-cadherin, E-cadherin, MMP-9, vimentin)” value [1]?
A: did not have a significant effect
